Each block holds one molecule with its values, some of them ahead of it.
Columns and labels:
[1] = Particle size and polydispersity index of nanoparticle compositions (Zetasizer Nano ZS); format: physicochemical; conditions: for particle size, rank within the named table (in words): comparison amongst compositions
Description: A Zetasizer Nano ZS (Malvern Instruments Ltd, Malvern, Worcestershire, UK) can be used to determine the particle size, the polydispersity index (PDI) and the zeta potential of the nanoparticle compositions in 1×PBS in determining particle size and 15 mM PBS in determining zeta potential.

[2] = test system: modified luciferase expression; test: Expression of Luc in different organs (liver, lung, spleen, femur) 6 hours after intravenous administration; format: in vivo; conditions: i.v., 0.5 mpk; for total flux in organs, rank or organ comparison (in words): each organ or overall
Description: The efficacy of the nanoparticle compositions presented in Tables 1, 1a, 17-1, 19-1, 20-1 and 21-1 was further evaluated by measuring the expression of modified luciferase in the liver, lung, spleen, and femur upon administration of a given composition. Formulations were administered intravenously to mice (n=3) at a dosage of 0.5 mpk and bioluminescence measured after 6 hours. The standard MC3 formulation and a PBS control were also tested.

[3] = Encapsulation efficiency of RNA (QUANT-IT RIBOGREEN RNA assay); format: physicochemical; conditions: for encapsulation efficiency, rank within the named table (in words): comparison amongst compositions
Description: For nanoparticle compositions including an RNA, a QUANT-IT™ RIBOGREEN® RNA assay (Invitrogen Corporation Carlsbad, Calif.) can be used to evaluate the encapsulation of an RNA by the nanoparticle composition. The samples are diluted to a concentration of approximately 5 μg/mL in a TE buffer solution (10 mM Tris-HCl, 1 mM EDTA, pH 7.5). 50 μL of the diluted samples are transferred to a polystyrene 96 well plate and either 50 μL of TE buffer or 50 μL of a 2% Triton X-100 solution is added to the wells. The plate is incubated at a temperature of 37° C. for 15 minutes. The RIBOGREEN® reagent is diluted 1:100 in TE buffer, and 100 μL of this solution is added to each well. The fluorescence intensity can be measured using a fluorescence plate reader (Wallac Victor 1420 Multilablel Counter; Perkin Elmer, Waltham, Mass.) at an excitation wavelength of, for example, about 480 nm and an emission wavelength of, for example, about 520 nm. The fluorescence values of the reagent blank are subtracted from that of each of the samples and the percentage of free RNA is determined by dividing the fluorescence intensity of the intact sample (without addition of Triton X-100) by the fluorescence value of the disrupted sample (caused by the addition of Triton X-100).

[4] = pKa of nanoparticle compositions; format: physicochemical
[5] = test system: luciferase (Luc) mRNA expression; test: Expression of Luc induced by sample formulations, whole-body bioluminescence after intravenous administration; format: in vivo; conditions: mice, i.v., 0.5 mg/kg; for total flux / Luc expression, rank within the named table (in words): each time point
Description: In order to monitor how effectively various nanoparticle compositions deliver therapeutic and/or prophylactic agents to targeted cells, different nanoparticle compositions including a particular therapeutic and/or prophylactic agent (for example, a modified or naturally occurring RNA such as an mRNA) are prepared and administered to rodent populations. Mice are intravenously, intramuscularly, intraarterially, or intratumorally administered a single dose including a nanoparticle composition with a formulation such as those provided in Table 1. In some instances, mice may be made to inhale doses. Dose sizes may range from 0.001 mg/kg to 10 mg/kg, where 10 mg/kg describes a dose including 10 mg of a therapeutic and/or prophylactic agent in a nanoparticle composition for each 1 kg of body mass of the mouse. A control composition including PBS may also be employed.
Upon administration of nanoparticle compositions to mice, dose delivery profiles, dose responses, and toxicity of particular formulations and doses thereof can be measured by enzyme-linked immunosorbent assays (ELISA), bioluminescent imaging, or other methods. For nanoparticle compositions including mRNA, time courses of protein expression can also be evaluated. Samples collected from the rodents for evaluation may include blood, sera, and tissue (for example, muscle tissue from the site of an intramuscular injection and internal tissue); sample collection may involve sacrifice of the animals.
The efficacy of the nanoparticle compositions presented in Tables 1, 1a, 17-1, 19-1, 20-1 and 21-1 was evaluated with a bioluminescence study. Formulations were administered intravenously to mice (n=6) at a dosage of 0.5 mg/kg (mpk) and bioluminescence measured at 3, 6, and 24 hour time points. The standard MC3 formulation and a PBS control were evaluated for comparison.

[6] = Table 1, rows without footnote mark (lipid:DOPE:cholesterol:PEG-DMG 40:20:38.5:1.5, Luc mRNA; MC3 standard formulation)
[7] = Table 1, rows without footnote mark
[8] = Table 1, * lipid:DSPC:Chol:PEG-DMG 50:10:38.5:1.5
[9] = Table 20-1, rows without footnote mark

Structure (SMILES): CCCCCCCC/C=C\CCCCCCCCN(CCCCCCCC/C=C\CCCCCCCC)CCN(CCCCCCCC/C=C\CCCCCCCC)CCN1CCN(CCN(CCCCCCCC/C=C\CCCCCCCC)CCCCCCCC/C=C\CCCCCCCC)CC1 [Formula IV, N^1-(2-(4-(2-(Di((Z)-octadec-9-en-1-yl)amino)ethyl)piperazin-1-yl)ethyl)-N^1,N^2,N^2-tri((Z)-octadec-9-en-1-yl)ethane-1,2-diamine]
Size (nm) [1, 6]: 94.2 nm | Total Flux Liver ([2]; Table 3, mice, liver): 9.15E+08 | Total Flux Spleen ([2]; Table 3, mice): 6.15E+08 | EE (%) [3, 7]: 97.6% | pKa [4, 7]: 6.25

Structure (SMILES): CCCCC/C=C\CCCCCN(CCCCCCCCCCCC)CCN1CCN(CCN(CCCCCCCCCCCC)CCN(CCCCCCCCCCCC)CCCCCCCCCCCC)CC1 [Compound 24, (Z)—N^1-(2-(4-(2-(Dodec-6-en-1-yl(dodecyl)amino)ethyl)piperazin-1-yl)ethyl)-N^1,N^2,N^2-tridodecylethane-1,2-diamine]
Size (nm) ([1]; Table 1, * formulated with lipid:DSPC:Chol:PEG-DMG 50:10:38.5:1.5): 110.4 nm | PDI [1, 8]: 0.131 | EE (%) [3, 8]: 36.4% | encapsulation efficiency, rank within the named table (in words) [3]: lowest | pKa [4, 8]: 6.01

Structure (SMILES): CCCCCCCCCCCCN(CCCCCCCCCCCC)CCN1CCN(CCN(CCCCCCCCCCCC)C(=O)CN(CCCCCCCCCCCC)CCCCCCCCCCCC)CC1 [Compound 1, 2-(Didodecylamino)-N-(2-(4-(2-(didodecylamino)ethyl)piperazin-1-yl)ethyl)-N-dodecylacetamide]
Size (nm) [1, 6]: 203.2 nm | particle size, rank within the named table (in words) [1]: largest particles | EE (%) [3, 7]: 46.2% | encapsulation efficiency, rank within the named table (in words) [3]: lowest | pKa [4, 7]: 5.95

Further lines, with some results ahead:

PDI ([1]; Table 19-1): 0.239 | Size (nm) ([1]; Table 19-1): 72.0 nm | EE (%) ([3]; Table 19-1): 98.8% | pKa ([4]; Table 19-1): 7.32
Structure (SMILES): CCCCCCCCCCCCN(CCCCCCCCCCCC)CCN1CCNCC1 [Compound 19-2, N-Dodecyl-N-(2-(piperazin-1-yl)ethyl)dodecan-1-amine]
Total Flux Liver ([2]; Table 19-3, mice, liver): 5.73E+04 | Total Flux Lung ([2]; Table 19-3, mice): 2.33E+04 | Total Flux Spleen ([2]; Table 19-3, mice): 3.56E+04 | total flux in the liver, rank within the named table (in words) ([2]; mice, liver): lowest total flux in the liver | Total Flux 3 hours ([5]; Table 19-2): 1.96E+05 | Total Flux 6 hours ([5]; Table 19-2): 3.51E+05 | Total Flux 24 hours ([5]; Table 19-2): 2.29E+05 | total flux / Luc expression, rank within the named table (in words) [5]: lowest total flux

PDI ([1]; Table 21-1): 0.193 | Size (nm) ([1]; Table 21-1): 94.9 nm | EE (%) ([3]; Table 21-1): 98.8% | pKa ([4]; Table 21-1): 7.01
Structure (SMILES): CCCCC/C=C\C/C=C\CCCCCCCCC1(CCCCCCCC/C=C\C/C=C\CCCCC)CCC(OC(=O)CCCN(C)C)C1 (stereo not drawn) [Compound 21-4, 3,3-Di((9Z,12Z)-octadeca-9,12-dien-1-yl)cyclopentyl 4-(dimethylamino)butanoate]
Total Flux Liver ([2]; Table 21-3, mice, liver): 9.89E+07 | Total Flux Lung ([2]; Table 21-3, mice): 2.13E+05 | Total Flux Spleen ([2]; Table 21-3, mice): 1.27E+07 | total flux in organs, rank or organ comparison (in words) ([2]; mice): lowest expression in each organ | Total Flux 3 hours ([5]; Table 21-2): 1.15E+09 | Total Flux 6 hours ([5]; Table 21-2): 1.26E+09 | Total Flux 24 hours ([5]; Table 21-2): 1.26E+09

PDI ([1]; Table 21-1): 0.237 | Size (nm) ([1]; Table 21-1): 119.9 nm | particle size, rank within the named table (in words) [1]: largest particles | EE (%) ([3]; Table 21-1): 98.4% | pKa ([4]; Table 21-1): 6.07
Structure (SMILES): CCCCC/C=C\C/C=C\CCCCCCCCC1(CCCCCCCC/C=C\C/C=C\CCCCC)CC1CN(C)C (stereo not drawn) [Compound 21-1, 1-(2,2-Di((9Z,12Z)-octadeca-9,12-dien-1-yl)cyclopropyl)-N,N-dimethylmethanamine]
Total Flux Liver ([2]; Table 21-3, mice, liver): 3.62E+08 | Total Flux Lung ([2]; Table 21-3, mice): 5.44E+05 | Total Flux Spleen ([2]; Table 21-3, mice): 3.27E+07 | Total Flux 3 hours ([5]; Table 21-2): 3.66E+09 | Total Flux 6 hours ([5]; Table 21-2): 4.19E+09 | Total Flux 24 hours ([5]; Table 21-2): 4.19E+09

PDI ([1]; Table 19-1): 0.204 | Size (nm) ([1]; Table 19-1): 106.9 nm | EE (%) ([3]; Table 19-1): 93.6% | pKa ([4]; Table 19-1): 6.32
Structure (SMILES): CCCCCCCCCCCCN(CCCCCCCCCCCC)CCN1CCN(Cc2ccc(OC)cc2)CC1 [Compound 19-5, N-Dodecyl-N-(2-(4-(4-methoxybenzyl)piperazin-1-yl)ethyl)dodecan-1-amine]
Total Flux Liver ([2]; Table 19-3, mice, liver): 5.99E+06 | Total Flux Lung ([2]; Table 19-3, mice): 3.46E+04 | Total Flux Spleen ([2]; Table 19-3, mice): 2.10E+05 | Total Flux 3 hours ([5]; Table 19-2): 2.37E+07 | Total Flux 6 hours ([5]; Table 19-2): 1.44E+07 | Total Flux 24 hours ([5]; Table 19-2): 2.76E+06 | total flux / Luc expression, rank within the named table (in words) [5]: next highest flux

PDI ([1]; Table 21-1): 0.110 | Size (nm) ([1]; Table 21-1): 86.8 nm | EE (%) ([3]; Table 21-1): 98.9% | pKa ([4]; Table 21-1): 6.99
Structure (SMILES): CCCCC/C=C\C/C=C\CCCCCCCC1C(CCCCCCC/C=C\C/C=C\CCCCC)C1CN(C)C (stereo not drawn) [Compound 21-6, 1-(2,3-Di((8Z,11Z)-heptadeca-8,11-dien-1-yl)cyclopropyl)-N,N-dimethylmethanamine]
Total Flux Liver ([2]; Table 21-3, mice, liver): 4.79E+08 | Total Flux Lung ([2]; Table 21-3, mice): 2.09E+06 | Total Flux Spleen ([2]; Table 21-3, mice): 1.94E+07 | Total Flux 3 hours ([5]; Table 21-2): 2.92E+09 | Total Flux 6 hours ([5]; Table 21-2): 4.54E+09 | Total Flux 24 hours ([5]; Table 21-2): 1.40E+08

PDI [1, 9]: 0.159 | Size (nm) [1, 9]: 86.8 nm | EE (%) [3, 9]: 95.2% | pKa [4, 9]: 6.41
Structure (SMILES): CCCCCCCCCCCCN(CCO)CCN(CCCCCCCCCCCC)CCCCCCCCCCCC [Compound 20-20, 2-((2-(Didodecylamino)ethyl)(dodecyl)amino)ethan-1-ol]
Total Flux Liver ([2]; Table 20-3, mice, liver): 8.92E+08 | Total Flux Lung ([2]; Table 20-3, mice): 1.12E+06 | Total Flux Spleen ([2]; Table 20-3, mice): 1.39E+07 | Total Flux 3 hours ([5]; Table 20-2): 4.56E+09 | Total Flux 6 hours ([5]; Table 20-2): 3.27E+09 | Total Flux 24 hours ([5]; Table 20-2): 3.56E+08

PDI ([1]; Table 21-1): 0.200 | Size (nm) ([1]; Table 21-1): 83.0 nm | particle size, rank within the named table (in words) [1]: smallest particles | EE (%) ([3]; Table 21-1): 99.4% | pKa ([4]; Table 21-1): 6.98
Structure (SMILES): CCCCC/C=C\C/C=C\CCCCCCCCC1(CCCCCCCC/C=C\C/C=C\CCCCC)CC(OC(=O)CCCN(C)C)C1 [Compound 21-2, 3,3-Di((9Z,12Z)-octadeca-9,12-dien-1-yl)cyclobutyl 4-(dimethylamino)butanoate]
Total Flux Liver ([2]; Table 21-3, mice, liver): 5.50E+07 | Total Flux Lung ([2]; Table 21-3, mice): 2.53E+05 | Total Flux Spleen ([2]; Table 21-3, mice): 1.56E+07 | total flux in organs, rank or organ comparison (in words) ([2]; mice): lowest expression in each organ | Total Flux 3 hours ([5]; Table 21-2): 5.99E+08 | Total Flux 6 hours ([5]; Table 21-2): 8.09E+08 | Total Flux 24 hours ([5]; Table 21-2): 8.09E+08 | total flux / Luc expression, rank within the named table (in words) [5]: least expression at 3 and 6 hours
